Experimental data: patent publication US12134610B2, “Somatostatin subtype-2 receptor (SST2R) targeted therapeutics and uses thereof” (priority 2022, dated 2024)
Where two headings read alike, the source gives them in different places. Starred links: 1 amine or outer side, 2 acyl side, 3 side chain; linkers in the order of their positions; H or OH if unused. Non-standard residues stand in square brackets, D forms with d. Residues, ends and D or L forms follow the SMILES beside them. *: point of attachment. X3 = Cc1cc(F)cc(-c2cnc(NCCN*)c(-c3nc4ccc(Cl)cc4[nH]3)c2N2CCC(N)CC2)c1; Dolaproine = CO[C@@H]([C@@H]1CCCN1)[C@@H](C)C(=O)O; Dil = CC[C@H](C)[C@H](NC)[C@@H](CC(=O)O)OC; PABC = O=C(OCc1ccc(N[*:1])cc1)[*:2]; Glutaryl = O=C(CCCC(=O)[*:2])[*:1]; X2 = C[C@@H](N*)[C@@H](O)c1ccccc1; Cit = NC(=O)NCCC[C@H](N)C(=O)O; NMeV = CN[C@H](C(=O)O)C(C)C; Sar = CNCC(=O)O

Columns and labels:
Assay type in all cases: cell-based
[1] = target: T1, human somatostatin receptor subtype 2 (Homo sapiens, UniProt P30874); assay: Functional cAMP assay for SSTR2 agonists (HTRF) in CHO-K1 cells; settings: CHO-K1 cells stably expressing human SST2, 20 min
T1 construct: expressed in transfected cells
How it was run: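 CHO-K1 cells stably expressing receptor, plated 4 days before assay, treated 20 min at 37° C. with compound (typically 0-10,000 nM final) plus IBMX and 1.6 μM NKH477 to raise cAMP. HTRF read, 665/620 nm ratio; cAMP from standard curve, EC50 fitted.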

SST2 = target: T2, SST2 (Homo sapiens, UniProt P30874); assay: PathHunter CHO-K1 SST2 internalization assay; settings: PathHunter CHO-K1 SST2, 90 min
T2 construct: host or cells: PathHunter CHO-K1 SST2 cells
How it was run: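 PathHunter CHO-K1 SST2 cells, seeded and grown 48 h, were exposed to 11-point 1:3 dilutions of SMDC (top final 10 uM) for 90 min at 37 C, 5% CO2. Beta-Glo luminescence was read after 60 min at room temperature. Background-corrected duplicate means were fitted by four-parameter nonlinear regression to give IC50.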

[2] = test system: NCI-H524 (ATCC) human small cell lung cancer cells
How it was run: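 NCI-H524 cells (5,000/well) were exposed 24 h after plating to SMDC for 2 h, 11-point two-fold series from 1 uM. After washout they grew a further 70 h. Proliferation was read by CellTiter-Glo luminescence, % inhibition taken vs untreated control, and IC50 fitted by four-parameter nonlinear regression.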

[3] = 2 h treatment, washout, additional 70 h, read-out: H524 EC50

T1 sequence (P30874 whole entry): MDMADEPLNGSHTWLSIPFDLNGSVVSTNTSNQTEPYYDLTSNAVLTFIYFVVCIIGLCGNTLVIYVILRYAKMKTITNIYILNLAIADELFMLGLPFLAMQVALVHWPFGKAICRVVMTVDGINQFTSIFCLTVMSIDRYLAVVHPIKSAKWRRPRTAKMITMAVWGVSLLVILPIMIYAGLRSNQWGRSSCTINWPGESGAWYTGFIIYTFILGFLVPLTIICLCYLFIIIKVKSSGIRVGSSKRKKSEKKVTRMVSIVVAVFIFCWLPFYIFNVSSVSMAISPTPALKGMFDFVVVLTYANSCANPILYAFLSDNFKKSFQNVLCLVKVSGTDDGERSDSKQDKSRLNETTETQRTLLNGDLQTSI
T2 sequence (P30874 whole entry): as above

| Structure (SMILES) | EC50 ([1]; read-out: hSST2 cAMP Avg EC50) [nM] | EC50 (SST2; read-out: Internalization EC50) [nM] | EC50 ([2]; 2 h) [nM] | EC50 ([1]; hSST2 cAMP Avg EC50 (nM)) [nM] | EC50 (SST2; Internalization EC50 (nM)) [nM] | EC50 [2, 3] [nM] |
| --- | --- | --- | --- | --- | --- | --- |
| CCC(C)C(C(CC(=O)N1CCCC1C(OC)C(C)C(=O)NC(C)C(O)c1ccccc1)OC)N(C)C(=O)C(NC(=O)C(C(C)C)N(C)C(=O)OCc1ccc(NC(=O)CNC(=O)[C@H](Cc2ccccc2)NC(=O)CNC(=O)CNC(=O)CCOCCC(=O)NCCNc2ncc(-c3cc(C)cc(F)c3)c(N3CCC(N)CC3)c2-c2nc3ccc(Cl)cc3[nH]2)cc1)C(C)C (stereo in doubt) [Compound 35] | 0.58 | 6.1 | 17.4 | – | – | – |
| CC[C@H](C)[C@@H]([C@@H](CC(=O)N1CCC[C@H]1[C@H](OC)[C@@H](C)C(=O)N[C@H](C)[C@@H](O)c1ccccc1)OC)N(C)C(=O)[C@@H](NC(=O)[C@H](C(C)C)N(C)C(=O)OCc1ccc(NC(=O)[C@H](CCCNC(N)=O)NC(=O)[C@@H](NC(=O)CCCC(=O)N(C)CC(=O)NCCNc2ncc(-c3cc(C)cc(F)c3)c(N3CCC(N)CC3)c2-c2nc3ccc(Cl)cc3[nH]2)C(C)C)cc1)C(C)C [Compound 95] ({X3-Sar-Glutaryl}-V[Cit][PABC][NMeV]V[Dil][Dolaproine]-X2) | 0.26 | 2.2 | 5.1 | – | – | – |
| CCC(C)C(C(CC(=O)N1CCCC1C(OC)C(C)C(=O)NC(C)C(O)c1ccccc1)OC)N(C)C(=O)C(NC(=O)C(C(C)C)N(C)C(=O)OCc1ccc(NC(=O)[C@H](CCCNC(N)=O)NC(=O)[C@@H](NC(=O)CCOCCOCCC(=O)NCCNc2ncc(-c3cc(C)cc(F)c3)c(N3CCC(N)CC3)c2-c2nc3ccc(Cl)cc3[nH]2)C(C)C)cc1)C(C)C (stereo in doubt) [Compound 24] | 0.2 | 12 | 13.4 | – | – | – |
| CCc1c2c(nc3ccc(OC(=O)NCCOCCOCCOCCOCCC(=O)NCCNc4ncc(-c5cc(C)cc(F)c5)c(N5CCC(N)CC5)c4-c4nc5ccc(Cl)cc5[nH]4)cc13)-c1cc3c(c(=O)n1C2)COC(=O)[C@]3(O)CC [Compound 10, (19S)-10,19-diethyl-19-hydroxy-14,18-dioxo-17-oxa-3,13-diazapentacyclo[11.8.0.0^2,^11.0^4,^9.0^15,^20]henicosa-1(21),2,4(9),5,7,10,15(20)-heptaen-7-yl N-{14-[(2-{[4-(4-aminopiperidin-1-yl)-3-(6-chloro-1H-1,3-benzodiazol-2-yl)-5-(3-fluoro-5-methylphenyl)pyridin-2-yl]amino}ethyl)carbamoyl]-3,6,9,12-tetraoxatetradecan-1-yl}carbamate] | – | – | – | 0.44 | 3.15 | 17.4 |
| CC[C@H](C)[C@@H]([C@@H](CC(=O)N1CCC[C@H]1[C@H](OC)[C@@H](C)C(=O)N[C@H](C)[C@@H](O)c1ccccc1)OC)N(C)C(=O)[C@@H](NC(=O)[C@H](C(C)C)N(C)C(=O)OCc1ccc(NC(=O)[C@H](CCCNC(N)=O)NC(=O)[C@@H](NC(=O)CCOCCC(=O)NCCNc2ncc(-c3cc(C)cc(F)c3)c(N3CCC(N)CC3)c2-c2nc3ccc(Cl)cc3[nH]2)C(C)C)cc1C(=O)NCC(N)=O)C(C)C [Compound 125] | 0.17 | 3.9 | 3.4 | – | – | – |
| CC[C@H](C)[C@@H]([C@@H](CC(=O)N1CCC[C@H]1[C@H](OC)[C@@H](C)C(=O)N[C@H](C)[C@@H](O)c1ccccc1)OC)N(C)C(=O)[C@@H](NC(=O)[C@H](C(C)C)N(C)C(=O)OCc1ccc(NC(=O)[C@H](C)NC(=O)[C@@H](NC(=O)[C@H](CCC(N)=O)NC(=O)CCOCCC(=O)NCCNc2ncc(-c3cc(C)cc(F)c3)c(N3CCC(N)CC3)c2-c2nc3ccc(Cl)cc3[nH]2)C(C)C)cc1C(=O)NCCN)C(C)C [Compound 118] | 0.068 | 3.8 | 0.65 | – | – | – |
| CC[C@H](C)[C@@H]([C@@H](CC(=O)N1CCC[C@H]1[C@H](OC)[C@@H](C)C(=O)N[C@H](C)[C@@H](O)c1ccccc1)OC)N(C)C(=O)[C@@H](NC(=O)[C@H](C(C)C)N(C)C(=O)OCc1ccc(NC(=O)[C@H](CCCNC(N)=O)NC(=O)[C@@H](NC(=O)CCCC(=O)N(C)CC(=O)NCCNc2ncc(-c3cc(C)cc(F)c3)c(N3CCC(N)CC3)c2-c2nc3ccc(Cl)cc3[nH]2)C(C)C)c(O[C@@H]2O[C@H](C(=O)O)[C@@H](O)[C@H](O)[C@H]2O)c1)C(C)C [Compound 141] | 0.22 | 2.3 | 11 | – | – | – |
| COc1cc2cc(c1Cl)N(C)C(=O)C[C@H](OC(=O)[C@H](C)N(C)C(=O)CCSSCCNC(=O)CCOCCNC(=O)C[C@@H](N)C(=O)NCCNc1ncc(-c3cc(C)cc(F)c3)c(N3CCC(N)CC3)c1-c1nc3ccc(Cl)cc3[nH]1)[C@]1(C)O[C@H]1[C@H](C)[C@@H]1C[C@@](O)(NC(=O)O1)[C@H](OC)/C=C/C=C(\C)C2 [Compound 77] | 0.21 | 5.2 | 17 | – | – | – |
| CC[C@H](C)[C@@H]([C@@H](CC(=O)N1CCC[C@H]1[C@H](OC)[C@@H](C)C(=O)N[C@H](C)[C@@H](O)c1ccccc1)OC)N(C)C(=O)[C@@H](NC(=O)[C@H](C(C)C)N(C)C(=O)OCc1ccc(NC(=O)CCOCCOCCOCCOCCC(=O)NCCNc2ncc(-c3cc(C)cc(F)c3)c(N3CCC(N)CC3)c2-c2nc3ccc(Cl)cc3[nH]2)c(O[C@@H]2O[C@H](C(=O)O)[C@@H](O)[C@H](O)[C@H]2O)c1)C(C)C [Compound 64] | 0.1 | 12 | 9500 | – | – | – |
| CC[C@H](C)[C@@H]([C@@H](CC(=O)N1CCC[C@H]1[C@H](OC)[C@@H](C)C(=O)N[C@H](C)[C@@H](O)c1ccccc1)OC)N(C)C(=O)[C@@H](NC(=O)[C@H](C(C)C)N(C)C(=O)OCc1ccc(NC(=O)[C@H](C)NC(=O)[C@@H](NC(=O)[C@H](CCC(N)=O)NC(=O)CCOCCC(=O)NCCNc2ncc(-c3cc(C)cc(F)c3)c(N3CCC(N)CC3)c2-c2nc3ccc(Cl)cc3[nH]2)C(C)C)c(O[C@@H]2O[C@H](C(=O)O)[C@@H](O)[C@H](O)[C@H]2O)c1)C(C)C [Compound 146] | 0.072 | 2.1 | 4.8 | – | – | – |
| CC[C@H](C)[C@@H]([C@@H](CC(=O)N1CCC[C@H]1[C@H](OC)[C@@H](C)C(=O)N[C@H](C)[C@@H](O)c1ccccc1)OC)N(C)C(=O)[C@@H](NC(=O)[C@H](C(C)C)N(C)C(=O)OCc1ccc(NC(=O)[C@H](C)NC(=O)[C@@H](NC(=O)CCOCCC(=O)NCCNc2ncc(-c3cc(C)cc(F)c3)c(N3CCC(N)CC3)c2-c2nc3ccc(Cl)cc3[nH]2)C(C)C)cc1C(=O)NCCN)C(C)C [Compound 86] | 0.36 | 15 | 1.1 | – | – | – |
| Cc1cc(F)cc(-c2cnc(NCCNC(=O)CCOCCC(=O)NCCNC(=O)c3c(C)[nH]c(/C=C4\C(=O)Nc5ccc(F)cc54)c3C)c(-c3nc4ccc(Cl)cc4[nH]3)c2N2CCC(N)CC2)c1 [Compound 29, N-(2-{[4-(4-aminopiperidin-1-yl)-3-(6-chloro-1H-1,3-benzodiazol-2-yl)-5-(3-fluoro-5-methylphenyl)pyridin-2-yl]amino}ethyl)-3-[2-({2-[(5-{[(3Z)-5-fluoro-2-oxo-2,3-dihydro-1H-indol-3-ylidene]methyl}-2,4-dimethyl-1H-pyrrol-3-yl)formamido]ethyl}carbamoyl)ethoxy]propenamide] | 0.065 | 2.2 | > 10000 | – | – | – |
| CC[C@@]1(O)C(=O)OCc2c1cc1n(c2=O)Cc2c-1nc1cc(F)c(C)c3c1c2[C@@H](NC(=O)OCc1ccc(NC(=O)[C@H](CCCNC(N)=O)NC(=O)[C@@H](NC(=O)CCOCCC(=O)NCCNc2ncc(-c4cc(C)cc(F)c4)c(N4CCC(N)CC4)c2-c2nc4ccc(Cl)cc4[nH]2)C(C)C)cc1C(=O)NCCN)CC3 [Compound 90] | – | – | – | 0.22 | 4.8 | 71 |
| CC[C@H](C)[C@@H]([C@@H](CC(=O)N1CCC[C@H]1[C@H](OC)[C@@H](C)C(=O)N[C@H](C)[C@@H](O)c1ccccc1)OC)N(C)C(=O)[C@H](C)NC(=O)[C@H](C(C)C)N(C)C(=O)OCc1ccc(NC(=O)[C@@H](NC(=O)[C@@H](NC(=O)CCN(C)CCC(=O)NCCNc2ncc(-c3cc(C)cc(F)c3)c(N3CCC(N)CC3)c2-c2nc3ccc(Cl)cc3[nH]2)C(C)C)C(C)C)c(O[C@@H]2O[C@H](C(=O)O)[C@@H](O)[C@H](O)[C@H]2O)c1 [Compound 154] | 0.16 | 25 | 29 | – | – | – |
| CC[C@H](C)[C@@H]([C@@H](CC(=O)N1CCC[C@H]1[C@H](OC)[C@@H](C)C(=O)N[C@H](C)[C@@H](O)c1ccccc1)OC)N(C)C(=O)[C@@H](NC(=O)[C@H](C(C)C)N(C)C(=O)OCc1ccc(NC(=O)[C@H](CCCNC(N)=O)NC(=O)[C@@H](NC(=O)CCOCCNC(=O)CN2CCN(CC(=O)O)CCN(CC(=O)NCCNc3ncc(-c4cc(C)cc(F)c4)c(N4CCC(N)CC4)c3-c3nc4ccc(Cl)cc4[nH]3)CC2)C(C)C)cc1)C(C)C [Compound 37] | 0.071 | 13.7 | 102 | – | – | – |
| CC[C@H](C)[C@@H]([C@@H](CC(=O)N1CCC[C@H]1[C@H](OC)[C@@H](C)C(=O)N[C@H](C)[C@@H](O)c1ccccc1)OC)N(C)C(=O)[C@@H](NC(=O)[C@H](C(C)C)N(C)C(=O)OCc1ccc(NC(=O)[C@H](CCCNC(N)=O)NC(=O)[C@@H](NC(=O)CCOCCC(=O)N[C@@H](CS(=O)(=O)O)C(=O)NCCNc2ncc(-c3cc(C)cc(F)c3)c(N3CCC(N)CC3)c2-c2nc3ccc(Cl)cc3[nH]2)C(C)C)cc1)C(C)C [Compound 70] | 0.44 | 17 | 68 | – | – | – |
